Experimental data as given in EP4567035A1, “NOVEL COMPOUND AS HYPOXIA-INDUCIBLE FACTOR 1(HIF-1) INHIBITOR OR VASCULAR ENDOTHELIAL GROWTH FACTOR (VEGF) INHIBITOR, AND PHARMACEUTICAL COMPOSITION COMPRISING SAME” (Nextgen Bioscience Co., Ltd., priority 2022, dated 2024).
Like-named read-outs stand apart in the source and are kept apart here.

Key:
VEGF = experiment: Evaluation of VEGF protein secretion level (Human VEGF ELISA) in ARPE-19 cell medium under hypoxic conditions; assay type: cell-based; conditions: ARPE-19 cells; pretreated 2 hours, 24 hours hypoxic conditions; secreted VEGF in medium supernatant by ELISA; concentration range reducing VEGF by 50% vs untreated control; read-out: IC50 VEGF
In short: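 Human ARPE-19 cells were pretreated 2 h with compound (0.1 nM–10 µM, in DMEM/F12 with 1% FBS), then held 24 h in hypoxia (1% O2, 5% CO2). Secreted VEGF in the supernatant was quantified by ELISA (A450). The value is the concentration range giving ≥50% VEGF reduction versus untreated control.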

HIF-1α = biological target: T1, HIF-1α (Homo sapiens, UniProt Q16665); experiment: Analysis of HIF-1α protein expression (Western blot) in ARPE-19 cells under mixed hypoxic condition; assay type: cell-based; conditions: concentration range at which HIF-1α expression is reduced by 50% vs untreated control
T1 construct: endogenous in cells; host or cells: ARPE-19 (ATCC CRL-2302)
In short: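 ARPE-19 cells were pretreated 16 h or 2 h with compound (0.1 nM–10 µM, serum-free DMEM/F12), then held 1 h or 24 h in mixed hypoxia (1% O2 plus CoCl2). HIF-1α was quantified by Western blot against β-actin; the concentration range giving ≥50% reduction vs untreated control was reported.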

[1] = mixed hypoxic condition (1% oxygen + CoCl2) for 1 hour, read-out: IC50 HIF-1α Hypoxia (1 hour)
[2] = values marked * in the table, mixed hypoxic condition (1% oxygen + CoCl2) for 24 hours, read-out: IC50 HIF-1α, Hypoxia(24h)

T1 sequence (Q16665 whole entry): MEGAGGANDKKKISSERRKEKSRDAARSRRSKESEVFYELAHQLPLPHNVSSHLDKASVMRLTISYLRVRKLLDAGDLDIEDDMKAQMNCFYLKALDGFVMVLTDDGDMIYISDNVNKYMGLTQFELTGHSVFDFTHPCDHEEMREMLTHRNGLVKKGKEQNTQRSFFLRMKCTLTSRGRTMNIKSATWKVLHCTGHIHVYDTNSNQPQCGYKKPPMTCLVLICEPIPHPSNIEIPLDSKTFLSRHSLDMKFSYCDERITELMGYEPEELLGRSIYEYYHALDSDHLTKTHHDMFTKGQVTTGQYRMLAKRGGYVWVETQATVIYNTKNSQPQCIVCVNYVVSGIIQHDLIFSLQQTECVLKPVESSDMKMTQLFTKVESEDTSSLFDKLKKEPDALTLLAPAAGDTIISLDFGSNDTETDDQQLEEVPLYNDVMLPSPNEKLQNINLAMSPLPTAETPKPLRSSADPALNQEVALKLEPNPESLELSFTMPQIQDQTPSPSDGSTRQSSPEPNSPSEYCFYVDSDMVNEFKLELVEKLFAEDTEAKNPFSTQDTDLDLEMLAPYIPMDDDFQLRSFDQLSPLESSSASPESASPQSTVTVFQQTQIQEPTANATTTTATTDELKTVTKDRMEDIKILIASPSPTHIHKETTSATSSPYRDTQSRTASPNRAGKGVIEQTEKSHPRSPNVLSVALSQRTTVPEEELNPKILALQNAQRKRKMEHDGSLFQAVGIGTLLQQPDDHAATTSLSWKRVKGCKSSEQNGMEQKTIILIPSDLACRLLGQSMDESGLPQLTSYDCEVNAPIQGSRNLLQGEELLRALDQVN

IC50 (VEGF) | DC50 (HIF-1α; [1]) | DC50 (HIF-1α; [2]) | Structure (SMILES)
0.1 to 1 µM | < 0.1 µM |  | O=C(NCc1cc(F)cc(-c2ccn(-c3ccc(F)cc3)n2)c1)c1ncnc2nc(C3CCCC3)[nH]c12 [Example 51, 8-Cyclopentyl-N-(3-fluoro-5-(1-(4-fluorophenyl)-1H-pyrazol-3-yl)benzyl)-7H-purine-6-carboxamide]
0.1 to 1 µM | < 0.1 µM |  | O=C(NCc1cc(F)cc(-c2ccn(-c3ccc(F)cc3)c2)c1)c1ncnc2nc(C3CCCC3)[nH]c12 [Example 52, 8-Cyclopentyl-N-(3-fluoro-5-(1-(4-fluorophenyl)-1H-pyrrol-3-yl)benzyl)-7H-purine-6-carboxamide]
0.1 to 1 µM |  | < 0.1 µM | NC(=O)c1ccc(-n2cc(-c3cc(F)cc(CNC(=O)c4ncnc5nc(C6CCCC6)[nH]c45)c3)cn2)cc1 [Example 53, N-(3-(1-(4-carbamoylphenyl)-1H-pyrazol-4-yl)-5-fluorobenzyl)-8-cyclopentyl-7H-purine-6-carboxamide]
0.1 to 1 µM | < 0.1 µM |  | O=C(O)c1ccc(-n2cc(-c3cc(F)cc(CNC(=O)c4ncnc5nc(C6CCCC6)[nH]c45)c3)cn2)cc1 [Example 54, 4-(4-(3-((8-Cyclopentyl-7H-purine-6-carboxamido)methyl)-5-fluorophenyl)-1H-pyrazol-1-yl)benzoic acid]
0.1 to 1 µM |  | < 0.1 µM | O=C(NCc1cc(-c2cnn(-c3ccc(F)cc3)c2)ccc1F)c1ncnc2nc(C3CCCC3)[nH]c12 [Example 56, 8-Cyclopentyl-N-(2-fluoro-5-(1-(4-fluorophenyl)-1H-pyrazol-4-yl)benzyl)-7H-purine-6-carboxamide]
0.1 to 1 µM |  | < 0.1 µM | O=C(NCc1cccc(-c2cnn(-c3ccc(F)cc3)c2)c1)c1ncnc2nc(C3CCCC3)[nH]c12 [Example 57, 8-Cyclopentyl-N-(3-(1-(4-fluorophenyl)-1H-pyrazol-4-yl)benzyl)-7H-purine-6-carboxamide]
0.1 to 1 µM |  | < 0.1 µM | O=C(NCc1cc(F)cc(-c2cnn(-c3ccc(Cl)cc3)c2)c1)c1ncnc2nc(C3CCCC3)[nH]c12 [Example 58, N-(3-(1-(4-chlorophenyl)-1H-pyrazol-4-yl)-5-fluorobenzyl)-8-cyclopentyl-7H-purine-6-carboxamide]
0.1 to 1 µM |  | 0.1 to 1 µM | CS(=O)(=O)c1cc(Br)ccc1-n1cc(-c2cc(F)cc(CNC(=O)c3ncnc4nc(C5CCCC5)[nH]c34)c2)cn1 [Example 59, N-(3-(1-(4-bromo-2-(methylsulfonyl)phenyl)-1H-pyrazol-4-yl)-5-fluorobenzyl)-8-cyclopentyl-7H-purine-6-carboxamide]
0.1 to 1 µM |  | < 0.1 µM | O=C(NCc1cc(F)cc(-c2cnn(-c3ccc(F)c(F)c3)c2)c1)c1ncnc2nc(C3CCCC3)[nH]c12 [Example 60, 8-Cyclopentyl-N-(3-(1-(3,4-difluorophenyl)-1H-pyrazol-4-yl)-5-fluorobenzyl)-7H-purine-6-carboxamide]
1 to 10 µM | 0.1 to 1 µM |  | CN1CCC[C@H]1c1nc2ncnc(C(=O)NCc3cc(F)cc(-c4cnn(C)c4)c3)c2[nH]1 [Example 63, (S)-N-(3-fluoro-5-(1-methyl-1H-pyrazol-4-yl)benzyl)-8-(1-methylpyrrolidin-2-yl)-7H-purine-6-carboxamide]
1 to 10 µM | < 0.1 µM |  | CN1CCC[C@@H]1c1nc2ncnc(C(=O)NCc3cc(F)cc(-c4cnn(C)c4)c3)c2[nH]1 [Example 66, (R)-N-(3-fluoro-5-(1-methyl-1H-pyrazol-4-yl)benzyl)-8-(1-methylpyrrolidin-2-yl)-7H-purine-6-carboxamide]
1 to 10 µM | 0.1 to 1 µM |  | Cn1cc(-c2cc(F)cc(CNC(=O)c3ncnc4nc(C5CC6C(C5)C6(F)F)[nH]c34)c2)cn1 (stereo not drawn) [Example 77, 8-(6,6-Difluorobicyclo[3.1.0]hexan-3-yl)-N-(3-fluoro-5-(1-methyl-1H-pyrazol-4-yl)benzyl)-7H-purine-6-carboxamide]
